# Results: patent publication US20170020890A1, “PHARMACEUTICAL COMPOSITION COMPRISING FATTY ACID DERIVATIVE” (SUCAMPO AG, priority 2015, published 2017)
# Peptide text beside a SMILES is read from it.
# Test: Solubility of sweetening agents in medium-chain triglycerides (MCT)
# Details: not given
# Experimental: 18 mg of neotame, 20 mg of saccharin, 1 mg of sodium saccharin or 5 mg of thaumatin was mixed with medium-chain triglycerides (MCT; USP/NF) to give the total weight of 180 g, 20 g, 100 g or 500 g respectively.
# Solubility and sensory tests of sweetening agents were conducted. Specifically, 7.2 mg of neotame, 20 mg of saccharin or 5 mg of sucralose was mixed with medium-chain triglycerides (MCT; USP/NF) to give the total weight of 40 g, 20 g or 100 g, respectively. Additionally, 1 mg of a sweetening agent was mixed with medium-chain triglycerides (MCT; USP/NF) to give the total weight of its mixtures of 100 g. The sweetening agent was sodium saccharin, thaumatin, aspartame, acesulfame potassium, sucrose, glucose, fructose, lactose, D-sorbitol, or xylitol.
Solubility in MCT [w/w %],"Solubility in MCT, in words",Solubility to MCT [%],Compound
<0.001,,,"OC[C@@H](O)[C@H](O)[C@@H](O)CO [Xylitol, xylitol]"
<0.001,,,"COC(=O)[C@H](Cc1ccccc1)NC(=O)[C@@H](N)CC(=O)O [Aspartame, aspartame] (H-Asp-Phe-OMe)"
0.018,solved in MCT,0.01,COC(=O)[C@H](Cc1ccccc1)NC(=O)[C@H](CC(=O)O)NCCC(C)(C)C [Neotame]
0.1,solved in MCT,0.1,"O=C1NS(=O)(=O)c2ccccc21 [Saccharin, 2H-1λ^6,2-benzothiazol-1,1,3-trione]"
<0.001,,,"OC[C@H]1O[C@@](CO)(O[C@H]2O[C@H](CO)[C@@H](O)[C@H](O)[C@H]2O)[C@@H](O)[C@@H]1O [Sucrose, sucrose]"
<0.001,,,"OC[C@@H](O)[C@@H](O)[C@H](O)[C@@H](O)CO [D-Sorbitol, D-sorbitol]"
0.005,solved in MCT,,"OC[C@H]1O[C@H](O[C@]2(CCl)O[C@H](CCl)[C@@H](O)[C@@H]2O)[C@H](O)[C@@H](O)[C@H]1Cl [Sucralose, 1,6-Dichloro-1,6-dideoxy-β-D-fructofuranosyl-4-chloro-4-deoxy-α-D-galactopyranoside]"
<0.001,,,"CC1=CC(=O)NS(=O)(=O)O1 [Acesulfame potassium, acesulfame potassium]"

Compound,Solubility in MCT [w/w %],"Solubility in MCT, in words",Solubility to MCT [%]
thaumatin,<0.001,did not solve in MCT,<0.001

# Same assay, conditions: Example 1; medium-chain triglycerides (USP/NF)
row,Solubility to MCT [%],Compound
1,<0.001,"O=C1NS(=O)(=O)c2ccccc21.[Na] [Sodium saccharin, sodium saccharin]"

# Same assay, conditions: Example 5; medium-chain triglycerides (USP/NF)
row,Compound,Solubility in MCT [w/w %]
1,"O=C(CO)[C@@H](O)[C@H](O)[C@H](O)CO [Fructose, fructose]",<0.001
2,"O=C1NS(=O)(=O)c2ccccc21.[Na] [Sodium saccharin, sodium saccharin]",<0.001

# Same assay, conditions: Examples 1 and 5
row,"Solubility in MCT, in words",Compound
1,did not solve in MCT,"O=C1NS(=O)(=O)c2ccccc21.[Na] [Sodium saccharin, sodium saccharin]"
